# Experiments:
# [1] = Compound was evaluated for its pKa (weak acid) value; assay type: physicochemical
# L1210 = test: In vitro antitumor activity against murine leukemia L1210 after 48 hour; assay type: functional; details: Mus musculus, L1210, 48 h; read-out: ID50 (the source's name)
Structure (SMILES),pKa [1],IC50 (L1210)
Cc1c2cc[n+](C)cc2c(C)c2c3c([nH]c12)C=CC(=O)C3=O,5.1,9.6 µM
COC1=CC(=O)C(=O)c2c1nc1c(C)c3ccn(C)cc3c(C)c21,–,5.8 µM
Cc1c2c(c(C)c3c[n+](C)ccc13)C1=CC(=O)C=CC1=N2,–,0.05 µM

# From ChEMBL document CHEMBL1122214, “omicron-Quinone formation in the biochemical oxidation of the antitumor drug N2-methyl-9-hydroxyellipticinium acetate” (J Med Chem, 1983)
